Measured values from paper PMC9499525, “Tissue-restricted inhibition of mTOR using chemical genetics” (Proceedings of the National Academy of Sciences of the …, 2022).
Where two headings read alike, the source gives them in different places.

Tests used:
[1] = test system: mTOR signaling in Flp-In T-REx 293 cells; test: mTOR signaling by Western blot in parental (wild-type) Flp-In 293 cells; format: cell-based, human; settings: for IC50: Homo sapiens, 24 h treatment, wild-type 293 cells
Protocol: (§1) All cell lines were maintained in DMEM (Gibco) supplemented with 10% heat-inactivated FBS (Axenia Biologix) at 37 °C in 5% CO2. Flp-In T-REx 293 cells were obtained from Thermo Fisher supplemented with 15 µg/mL blasticin and 100 µg/mL Zeocin. Flp-In T-REx 293 FKBP12 V55G cells were supplemented with 15 µg/mL blasticin and 150 µg/mL hygromycin B. FKBP12 V55G expression was induced with 1 µg/mL doxycycline 24 h prior to drug treatments. MCF7 cells were obtained from ATCC (American Type Culture Collection), and MCF7 mTOR F2108L cells were described previously ([30]). When indicated, cells were treated with drugs at 60–80% confluency at a final DMSO concentration of 0.1%. At the end of the treatment period, cells were placed on ice and washed once with PBS. Cells were scraped with a spatula and lysed in radioimmunoprecipitation assay (RIPA) buffer supplemented with protease and phosphatase inhibitors (cOmplete and phosSTOP, Roche) on ice for 5 min. Lysates were clarified by high-speed centrifugation. Lysate concentration was determined by Bradford assay (Thermo Fisher) and adjusted to 2 mg/mL with additional RIPA buffer. Samples were mixed with 5x SDS loading dye and heated at 95 °C for 5 min.
SDS-PAGE was run with Novex 4–12% Bis-Tris gel (Invitrogen) in MOPS running buffer at 200V for 40 min. Samples were loaded at 20 µg lysate per lane. […] Following three 5 min. washes with TBST, membranes were imaged on a Li-COR Odyssey fluorescence imager. […] Blot quantification was performed in Fiji, and data were graphed and fit in Prism 9 (GraphPad). […] For detection of phosphorylated and total protein, primary antibodies for phospho-Akt/Akt, phospho-S6K/S6K, or phospho-S6/S6 were combined and detected using a mixture of species-specific secondary antibodies with orthogonal fluorescence to allow simultaneous detection of phosphorylated and total protein from a single membrane, or membrane was stripped (Cell Signaling Technology) after detection of phosphorylated protein and then reblocked and reprobed with primary antibody for total protein.

[2] = test system: MCF7 cells (with/without FKBP12 V55G-HA; mTOR F2108L); test: Cell growth by CellTiter-Glo in MCF7 cells; format: cell-based, human; settings: 72 h treatment
Protocol: as §1, with “Cells were scraped with a spatula and lysed in radioimmunoprecipitation assay (RIPA) buffer supplemented with protease and phosphatase inhibitors (cOmplete and phosSTOP, Roche) on ice for 5 min. Lysates were clarified by high-speed centrifugation.” left out, “Samples were mixed with 5x SDS loading dye and heated at 95 °C for 5 min.” left out
Cells were seeded into 96-well tissue-culture treated plates (Greiner) and were allowed to incubate for 24 h. […] Cell viability was assessed by CellTiter-Glo (Promega). […] Luminescence was measured on a Tecan Spark 20M. […]
Human FKBP12 coding sequence was cloned a pET-47b bacterial expression vector using Gibson assembly and a C-terminal HA-tag was added by QuickChange PCR. FKBP12 proteins were expressed as 8xHis fusions in E. coli BL21 (DE3) cells. […]

## CCO/N=C1/C[C@@H]([C@H](C)C[C@@H]2CC[C@@H](O)[C@H](OC)C2)OC(=O)[C@@H]2CCCCN2C(=O)C(=O)[C@]2(O)O[C@@H](CC[C@H]2C)C[C@H](OC)/C(C)=C/C=C/C=C/[C@@H](C)C[C@@H](C)C(=O)[C@H](OC)[C@H](O)/C(C)=C/[C@H]1C [Rapa*-3Z]
[1]; 10 nM, time course
  mTOR signaling in wild-type 293 cells: unaffected
[1]; read-out: IC50 phospho-S6
  IC50: 121 nM
[1]; read-out: IC50 phospho-S6K
  IC50: 76 nM
[2]; CellTiter-Glo
  Cell growth inhibition, MCF7 cells with and without FKBP12 V55G: activity was restricted to the mutant FKBP12-expressing cells
[2]; rapamycin resistance mutation
  Cell growth, MCF7 mTOR F2108L cells: had no effect on the growth of these cells
